The record followed here is PubChem BioAssay AID330 (DTP/NCI, 2004).

SMILES strings stand for the structures. Where “and” joins values, the source holds several entries; their conditions need not be identical. Equal entries are not always repeated. Toxic doses and inconclusive results are not listed.

For this assay, the system named is P388 leukemia ip, CD2F1 mice, survival T/C. Kind of assay: NCI In Vivo Anticancer Drug Screen. Data for tumor model P388 Leukemia (intraperitoneal) in CD2F1 (CDF1) mice. The note with it: endpoint: median survival time, higher = longer survival. The procedure, abridged:
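Mice carrying the transplanted tumor received test compound or vehicle. Survival was recorded in each group, and the value is the treated-group measurement divided by that of the vehicle-treated control group.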

Where [1] appears, read: dose: 50.0 mg/kg/injection, schedule: Q01DX005 (ip), vehicle: saline with Tween-80.
[2] abbreviates: dose: 100.0 mg/kg/injection, schedule: Q01DX005 (ip), vehicle: saline with Tween-80.
The mark [3] stands for this setting: dose: 200.0 mg/kg/injection, schedule: Q01DX005 (ip), vehicle: saline with Tween-80.
The mark [4] stands for this setting: dose: 60.0 mg/kg/injection, schedule: Q01DX005 (ip), vehicle: saline with Tween-80.
The mark [5] stands for this setting: dose: 120.0 mg/kg/injection, schedule: Q01DX005 (ip), vehicle: saline with Tween-80.
Where [6] appears, read: dose: 240.0 mg/kg/injection, schedule: Q01DX005 (ip), vehicle: saline with Tween-80.
Where [7] appears, read: dose: 200.0 mg/kg/injection, schedule: Q04DX003 (ip), vehicle: saline.
Where [8] appears, read: dose: 400.0 mg/kg/injection, schedule: Q04DX003 (ip), vehicle: saline.
The mark [9] stands for this setting: dose: 100.0 mg/kg/injection, schedule: Q04DX003 (ip), vehicle: saline.

For `CCC[CH2][Sn][Cl]`, the T/C is 104 % of control (dose: 50.0 mg/kg/injection, schedule: Q01DX009 (ip), vehicle: saline with Tween-80); 114 % of control (dose: 100.0 mg/kg/injection, schedule: Q01DX009 (ip), vehicle: saline with Tween-80); 117 % of control (dose: 200.0 mg/kg/injection, schedule: Q01DX009 (ip), vehicle: saline with Tween-80).
Turning to `S=C(Nc1ccc(Br)cc1)SCc1ccc(Cl)c(Cl)c1`, the T/C is, setting by setting: (dose: 50.0 mg/kg/injection, schedule: Q01DX009 (ip), vehicle: suspension in saline) 105 % of control; (dose: 100.0 mg/kg/injection, schedule: Q01DX009 (ip), vehicle: suspension in saline) 111 % of control; (dose: 200.0 mg/kg/injection, schedule: Q01DX009 (ip), vehicle: suspension in saline) 110 % of control.
For `CCOC(=O)C(CCC[n+]1ccc2ccccc2c1)C(=O)OCC`, the T/C is 96 % of control (dose: 50.0 mg/kg/injection, schedule: Q01DX005 (ip), vehicle: Klucel (hydroxypropylcellulose) (HPC)); 98 % of control (dose: 100.0 mg/kg/injection, schedule: Q01DX005 (ip), vehicle: Klucel (hydroxypropylcellulose) (HPC)); 98 % of control (dose: 200.0 mg/kg/injection, schedule: Q01DX005 (ip), vehicle: Klucel (hydroxypropylcellulose) (HPC)).
Turning to `CSCCC(NC(=O)OC(C)(C)C)C(=O)ON1C(=O)CCC1=O` (stereo not drawn), the T/C is 101 % of control and 107 % of control (dose: 12.5 mg/kg/injection, schedule: Q01DX005 (ip), vehicle: saline with Tween-80); 103 % of control and 107 % of control (dose: 25.0 mg/kg/injection, schedule: Q01DX005 (ip), vehicle: saline with Tween-80); 117 % of control and 98 % of control under setting [1]; 106 % of control and 113 % of control and 116 % of control under setting [2]; 107 % of control and 97 % of control under setting [3].
Regarding `COC1CC(C)C(OC)C2=CC(=O)C=C(NC(=O)/C(C)=C/C=C\C(C)C(OC(N)=O)/C(C)=C\C(C)C1OC)C2=O` (stereo not drawn), the T/C runs as follows: (dose: 5.0 mg/kg/injection, schedule: Q01DX009 (ip), vehicle: saline + alcohol) 121 % of control; (dose: 10.0 mg/kg/injection, schedule: Q01DX009 (ip), vehicle: saline + alcohol) 123 % of control; (dose: 20.0 mg/kg/injection, schedule: Q01DX009 (ip), vehicle: saline + alcohol) 86 % of control.
Turning to `C/C(CC(=O)c1ccccc1)=C1\C(=O)NN(c2ccccc2)C1=O`, the T/C by setting is: under setting [4], 101 % of control; under setting [5], 101 % of control; under setting [6], 93 % of control.
On to `O=C1Cc2[nH]ccc2C(=O)O1`, for which the T/C runs as follows: (dose: 100.0 mg/kg/injection, schedule: Q01DX001 (ip), vehicle: saline with Tween-80) 99 % of control; (dose: 200.0 mg/kg/injection, schedule: Q01DX001 (ip), vehicle: saline with Tween-80) 90 % of control; (dose: 400.0 mg/kg/injection, schedule: Q01DX001 (ip), vehicle: saline with Tween-80) 107 % of control.
Take `NC(=O)Nc1cc(NC(N)=O)cc(N(CCCl)CCCl)c1`: the T/C reads like this: (dose: 17.8 mg/kg/injection, schedule: Q04DX003 (ip), vehicle: water) 177 % of control; (dose: 20.0 mg/kg/injection, schedule: Q04DX003 (ip), vehicle: water) 173 % of control; (dose: 26.6 mg/kg/injection, schedule: Q04DX003 (ip), vehicle: water) 206 % of control; (dose: 40.0 mg/kg/injection, schedule: Q04DX003 (ip), vehicle: water) 194 % of control and 215 % of control.
`O=[N+]([O-])c1ccc(COc2ccccc2)cc1`: the T/C (dose: 100.0 mg/kg/injection, schedule: Q01DX001 (ip), vehicle: saline) is 104 % of control; the T/C (dose: 200.0 mg/kg/injection, schedule: Q01DX001 (ip), vehicle: saline) was 113 % of control; the T/C (dose: 400.0 mg/kg/injection, schedule: Q01DX001 (ip), vehicle: saline) is 124 % of control.
As to `CC(O)/C(=N\Nc1ccccc1)c1nc2ccccc2[nH]c1=O` (stereo not drawn), the T/C is, setting by setting: (dose: 30.0 mg/kg/injection, schedule: Q01DX005 (ip), vehicle: saline with Tween-80) 92 % of control; under setting [4], 89 % of control; under setting [5], 88 % of control.
Regarding `CCOC(=O)NC(NC(=O)OCC)c1cccnc1`, the T/C by setting is: under setting [7], 94 % of control; under setting [8], 101 % of control.
In the case of `CC1=CC(=O)C=CC1=Nc1ccc(N(CCCl)CCCl)cc1`, the T/C is, setting by setting: (dose: 50.0 mg/kg/injection, schedule: Q04DX003 (ip), vehicle: Klucel (hydroxypropylcellulose) (HPC)) 103 % of control; (dose: 100.0 mg/kg/injection, schedule: Q04DX003 (ip), vehicle: Klucel (hydroxypropylcellulose) (HPC)) 102 % of control.
For the molecule `COc1cc2c(c(OC(C)=O)c1OC)-c1ccc(OC)c(=O)cc1[C@@H](NC(C)=O)CC2`, the T/C was 94 % of control (dose: 1.25 mg/kg/injection, schedule: Q01DX009 (ip), vehicle: Klucel (hydroxypropylcellulose) (HPC)); 92 % of control (dose: 2.5 mg/kg/injection, schedule: Q01DX009 (ip), vehicle: Klucel (hydroxypropylcellulose) (HPC)); 100 % of control (dose: 5.0 mg/kg/injection, schedule: Q01DX009 (ip), vehicle: Klucel (hydroxypropylcellulose) (HPC)); 100 % of control (dose: 10.0 mg/kg/injection, schedule: Q01DX009 (ip), vehicle: Klucel (hydroxypropylcellulose) (HPC)); 109 % of control (dose: 20.0 mg/kg/injection, schedule: Q01DX009 (ip), vehicle: Klucel (hydroxypropylcellulose) (HPC)).
Turning to `Nc1nc[nH]c(=O)c1NC=O`, the T/C is, setting by setting: under setting [9], 120 % of control; under setting [7], 100 % of control; under setting [8], 110 % of control.
On to `CC(=O)OCc1ccc[n+]([O-])c1`, for which the T/C reads like this: (dose: 25.0 mg/kg/injection, schedule: Q01DX009 (ip), vehicle: saline) 99 % of control and 96 % of control; (dose: 50.0 mg/kg/injection, schedule: Q01DX009 (ip), vehicle: saline) 99 % of control and 103 % of control; (dose: 100.0 mg/kg/injection, schedule: Q01DX009 (ip), vehicle: saline) 99 % of control and 103 % of control; (dose: 200.0 mg/kg/injection, schedule: Q01DX009 (ip), vehicle: saline) 99 % of control and 86 % of control; (dose: 400.0 mg/kg/injection, schedule: Q01DX009 (ip), vehicle: saline) 99 % of control and 109 % of control.
`COc1ccccc1N1CCN(C(=O)CCCl)CC1`: the T/C is, setting by setting: (dose: 60.0 mg/kg/injection, schedule: Q01DX005 (ip), vehicle: Klucel (hydroxypropylcellulose) (HPC)) 109 % of control; (dose: 120.0 mg/kg/injection, schedule: Q01DX005 (ip), vehicle: Klucel (hydroxypropylcellulose) (HPC)) 103 % of control; (dose: 240.0 mg/kg/injection, schedule: Q01DX005 (ip), vehicle: Klucel (hydroxypropylcellulose) (HPC)) 105 % of control.
Turning to `CCOC(=O)c1cc2c(oc1=O)-c1cc(C)ccc1OC2C` (stereo not drawn), the T/C was 104 % of control under setting [4], 110 % of control under setting [5] and 105 % of control under setting [6].
As to `O=C(O)[C@@H]1c2ccccc2-c2ccccc2[C@H]1C(=O)O`, the T/C under setting [1] was 98 % of control, the T/C under setting [2] was 95 % of control and the T/C under setting [3] was 107 % of control.
The matching figures for `OCCCCCCCCCCCN1CCOCC1`: 106 % of control, 98 % of control and 101 % of control.
On to `CSC(=S)/C=C(\O)c1ccccc1`, for which the T/C runs as follows: under setting [9], 95 % of control; under setting [7], 104 % of control.
As for `O=C1SC(Nc2ccc(Br)cc2)/C(=N\N=C2/C(Nc3ccc(Br)cc3)SC(=O)N2Cc2ccccc2)N1Cc1ccccc1` (stereo not drawn), the T/C (dose: 100.0 mg/kg/injection, schedule: Q04DX002 (ip), vehicle: Klucel (hydroxypropylcellulose) (HPC)) is 97 % of control; the T/C (dose: 200.0 mg/kg/injection, schedule: Q04DX002 (ip), vehicle: Klucel (hydroxypropylcellulose) (HPC)) is 91 % of control; the T/C (dose: 400.0 mg/kg/injection, schedule: Q04DX002 (ip), vehicle: Klucel (hydroxypropylcellulose) (HPC)) was 91 % of control.
In the case of `CC(=NCCN=C(C)c1ccccc1O)c1ccccc1O`, the T/C (dose: 50.0 mg/kg/injection, schedule: Q01DX009 (ip), vehicle: Klucel (hydroxypropylcellulose) (HPC)) is 105 % of control; the T/C (dose: 100.0 mg/kg/injection, schedule: Q01DX009 (ip), vehicle: Klucel (hydroxypropylcellulose) (HPC)) was 114 % of control; the T/C (dose: 200.0 mg/kg/injection, schedule: Q01DX009 (ip), vehicle: Klucel (hydroxypropylcellulose) (HPC)) is 115 % of control.
`COc1cc(OC)c(/C=C/c2c3ccccc3cc[n+]2C)c(OC)c1`: the T/C is 108 % of control (dose: 0.39 mg/kg/injection, schedule: Q01DX009 (ip), vehicle: saline with Tween-80); 121 % of control (dose: 0.78 mg/kg/injection, schedule: Q01DX009 (ip), vehicle: saline with Tween-80); 152 % of control (dose: 3.13 mg/kg/injection, schedule: Q01DX009 (ip), vehicle: saline with Tween-80).
